Laboratory results published in US12103919B2, “3-(5-oxy)-1-oxoisoindolin-2-yl)piperidine-2,6-dione derivatives and uses thereof” (NOVARTIS AG, priority 2021, dated 2024).
Read-outs that look alike come from different tables or passages of the source.

Target: T1, WIZ (Homo sapiens, UniProt O95785+Q96SW2)
T1 construct: expressed in transfected cells
Experiment: Quantification of WIZ protein levels in HiBit tag fusion protein assay (293T cells)
Format: cell-based
Set-up: Dmax: dose or concentration left out as unconfirmed
Experimental: The HiBit system from Promega was used to develop high-throughput and quantitative assays to measure changes in WIZ protein levels in response to compounds. The HiBit tag was derived from a split Nanoluciferase and has the following protein sequence: […] (SEQ ID NO: 1). The complementary fragment of Nanoluciferase (known as LgBit, from Promega), was added to the HiBit tag to form an active Nanoluciferase enzyme whose activity can be precisely measured. In this way, the levels of a fusion protein with the HiBit tag can be quantified in cell lysates.
Lentiviral vectors, based on the Invitrogen™ pLenti6.2/V5 DEST backbone were constructed that places the HiBit tag upstream of WIZ and expressed the fusion protein from an HSVTK promotor.
To ensure moderate and consistent expression of the HiBit-WIZ fusion protein across all cells in the population, stable cell lines were constructed from cells harboring a single copy of the construct. Lentivirus packaged with the constructs were made using the ViraPowerTMkit from Invitrogen™. 293T cells from ATCC (Catalog number: CRL-3216), were infected with the virus at low multiplicity of infection and selected by 5 μg/mL blasticidin in culture media for 2 weeks.
The levels of HiBit-WIZ tagged fusion proteins in compound-treated cell lines were measured as follows:
On day 1, cells were diluted to 1.0×10^6 cells/ml in normal growth medium. 20 μL of cell suspension were plated in each well of a solid white 384-well plate. Plates were incubated overnight in a 37° C. and 5% CO2 humidified tissue culture incubator.
On day 2, serial dilutions of compounds were made in 384-well plates. Compound plates were set up with DMSO in columns 1, 2, 23, 24, and 10-point compound dilution series in column 3-12 and column 13-22. 10 mM stock solution of compound were placed into column 3 or 13 and a 1:5 serial dilution was carried out until there was a 10-point dilution series per compound. 50 nL of diluted compounds were transferred into the plated cells by Echo® (Labcyte) acoustic transfer. The highest concentration of compound was 25 μM. Plates were incubated overnight (about 18 hours) in a 37° C. and 5% CO2 humidified tissue culture incubator.
On day 3, plates were removed from the incubator and allowed to equilibrate at room temperature for 60 minutes. HiBit substrate (Nano-Glo® HiBit Lytic Detection System, Promega Catalogue number: N3050) was added as described by the manufacturers protocols. Plates were incubated at room temperature for 30 minutes and luminescence was read using an EnVision® reader (PerkinElmer®). Data was analyzed and visualized using the Spotfire® software package.
WIZ Amax reflects the DMSO-normalized, curve-fitted percentage of WIZ-HiBit remaining at 25 uM. It was calculated by normalizing DMSO controls to 100%, parametric curve fitting of the dose response data (10-point, 5-fold), followed by calculation of response at 25 uM using the fitted equation.

[1] = HEK-293T; DMSO-normalized, curve-fitted percentage of WIZ-HiBit remaining at 25 uM; read-out: WIZ Amax
[2] = HEK-293T; at 25 uM, 100 − Amax; read-out: % degradation of WIZ (100 − Amax)
[3] = WIZ HiBit assay in 293T cells, about 18 hours, 10-point 5-fold dilution, top 25 μM; read-out: WIZ AC50
[4] = DMSO-normalized, curve-fitted percentage of WIZ-HiBit remaining at 25 uM
[5] = HEK-293T, read-out: % degradation of WIZ (100 − Amax)

T1 sequence (O95785 whole entry): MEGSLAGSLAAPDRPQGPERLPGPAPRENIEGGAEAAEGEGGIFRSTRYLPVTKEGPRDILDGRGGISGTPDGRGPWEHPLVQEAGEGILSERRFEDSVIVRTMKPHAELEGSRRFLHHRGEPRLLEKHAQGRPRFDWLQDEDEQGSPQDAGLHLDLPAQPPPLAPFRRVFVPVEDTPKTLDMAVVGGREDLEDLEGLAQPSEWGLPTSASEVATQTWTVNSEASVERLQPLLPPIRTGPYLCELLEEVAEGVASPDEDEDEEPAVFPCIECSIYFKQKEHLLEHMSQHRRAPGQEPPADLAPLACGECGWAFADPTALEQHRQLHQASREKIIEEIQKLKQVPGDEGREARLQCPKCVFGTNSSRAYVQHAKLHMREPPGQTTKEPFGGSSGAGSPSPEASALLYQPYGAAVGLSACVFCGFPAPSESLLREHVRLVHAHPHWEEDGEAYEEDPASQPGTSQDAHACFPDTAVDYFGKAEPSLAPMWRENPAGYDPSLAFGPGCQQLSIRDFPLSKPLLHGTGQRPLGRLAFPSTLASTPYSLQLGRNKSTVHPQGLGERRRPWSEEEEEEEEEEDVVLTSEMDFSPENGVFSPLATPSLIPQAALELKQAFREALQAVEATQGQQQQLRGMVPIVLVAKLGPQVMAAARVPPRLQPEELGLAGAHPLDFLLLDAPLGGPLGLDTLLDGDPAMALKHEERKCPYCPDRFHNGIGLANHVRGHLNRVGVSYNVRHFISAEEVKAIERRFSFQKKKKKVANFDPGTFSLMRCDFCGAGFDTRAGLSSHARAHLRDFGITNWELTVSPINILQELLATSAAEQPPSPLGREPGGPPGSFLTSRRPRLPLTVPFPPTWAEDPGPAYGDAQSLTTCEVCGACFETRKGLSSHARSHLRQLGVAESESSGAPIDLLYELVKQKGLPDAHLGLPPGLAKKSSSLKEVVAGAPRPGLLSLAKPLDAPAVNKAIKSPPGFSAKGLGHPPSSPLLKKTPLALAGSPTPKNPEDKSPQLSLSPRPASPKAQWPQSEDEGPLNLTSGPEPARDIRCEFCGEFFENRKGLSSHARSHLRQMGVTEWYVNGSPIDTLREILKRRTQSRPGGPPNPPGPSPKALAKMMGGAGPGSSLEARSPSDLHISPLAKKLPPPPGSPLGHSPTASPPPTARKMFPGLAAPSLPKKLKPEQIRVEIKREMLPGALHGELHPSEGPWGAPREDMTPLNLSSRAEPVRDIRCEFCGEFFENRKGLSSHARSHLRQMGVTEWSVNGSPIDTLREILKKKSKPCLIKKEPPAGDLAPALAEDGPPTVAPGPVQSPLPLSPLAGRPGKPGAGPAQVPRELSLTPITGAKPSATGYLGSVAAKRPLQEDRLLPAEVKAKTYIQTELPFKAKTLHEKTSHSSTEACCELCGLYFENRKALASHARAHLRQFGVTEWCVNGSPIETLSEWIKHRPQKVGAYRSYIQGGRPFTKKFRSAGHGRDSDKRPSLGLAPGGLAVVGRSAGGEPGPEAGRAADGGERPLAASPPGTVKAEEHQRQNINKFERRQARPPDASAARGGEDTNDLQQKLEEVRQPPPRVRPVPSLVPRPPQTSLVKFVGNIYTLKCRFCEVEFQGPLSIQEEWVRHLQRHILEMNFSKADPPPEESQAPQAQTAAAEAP
T1 sequence (Q96SW2 whole entry): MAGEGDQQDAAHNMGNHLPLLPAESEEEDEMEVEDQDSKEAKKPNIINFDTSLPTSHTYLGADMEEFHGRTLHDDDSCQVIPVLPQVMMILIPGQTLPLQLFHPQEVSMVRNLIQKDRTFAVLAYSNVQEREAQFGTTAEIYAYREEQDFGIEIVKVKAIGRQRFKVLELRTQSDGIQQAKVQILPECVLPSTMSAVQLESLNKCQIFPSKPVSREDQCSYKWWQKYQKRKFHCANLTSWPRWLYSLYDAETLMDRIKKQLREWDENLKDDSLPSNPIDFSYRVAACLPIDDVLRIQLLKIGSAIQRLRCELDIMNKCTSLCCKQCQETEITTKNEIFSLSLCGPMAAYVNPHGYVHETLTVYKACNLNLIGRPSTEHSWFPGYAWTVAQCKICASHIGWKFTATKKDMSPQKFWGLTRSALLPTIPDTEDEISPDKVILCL
T1 sequence (Q16531 whole entry partner): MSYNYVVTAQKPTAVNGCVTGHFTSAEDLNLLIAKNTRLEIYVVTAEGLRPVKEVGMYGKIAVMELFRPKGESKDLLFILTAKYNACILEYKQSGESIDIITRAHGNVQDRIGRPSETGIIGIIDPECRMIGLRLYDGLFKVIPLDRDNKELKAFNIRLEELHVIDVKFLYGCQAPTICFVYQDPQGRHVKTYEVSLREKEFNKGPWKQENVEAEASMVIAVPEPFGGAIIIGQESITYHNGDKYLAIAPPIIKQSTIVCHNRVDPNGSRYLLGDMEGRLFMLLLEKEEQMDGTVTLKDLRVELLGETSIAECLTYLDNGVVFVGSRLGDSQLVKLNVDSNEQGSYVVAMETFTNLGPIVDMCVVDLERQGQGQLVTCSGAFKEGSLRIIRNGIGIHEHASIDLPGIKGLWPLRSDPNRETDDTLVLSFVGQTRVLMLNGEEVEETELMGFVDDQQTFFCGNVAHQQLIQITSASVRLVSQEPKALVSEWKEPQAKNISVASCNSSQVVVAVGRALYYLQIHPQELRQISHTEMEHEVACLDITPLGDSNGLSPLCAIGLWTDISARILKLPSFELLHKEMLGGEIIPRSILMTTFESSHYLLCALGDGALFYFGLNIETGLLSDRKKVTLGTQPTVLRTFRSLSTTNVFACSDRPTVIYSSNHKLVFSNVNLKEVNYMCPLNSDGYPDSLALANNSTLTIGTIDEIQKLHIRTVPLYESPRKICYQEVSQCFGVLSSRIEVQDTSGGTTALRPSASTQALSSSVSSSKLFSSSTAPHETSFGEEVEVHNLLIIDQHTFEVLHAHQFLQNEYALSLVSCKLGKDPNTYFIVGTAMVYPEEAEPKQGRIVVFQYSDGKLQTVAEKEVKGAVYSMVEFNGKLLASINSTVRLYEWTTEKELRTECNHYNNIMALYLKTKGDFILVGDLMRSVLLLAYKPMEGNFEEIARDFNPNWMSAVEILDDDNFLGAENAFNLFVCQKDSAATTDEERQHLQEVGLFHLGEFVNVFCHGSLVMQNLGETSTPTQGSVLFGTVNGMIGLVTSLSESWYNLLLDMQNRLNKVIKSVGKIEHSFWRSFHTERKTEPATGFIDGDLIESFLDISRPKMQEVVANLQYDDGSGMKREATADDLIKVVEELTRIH

Structure (SMILES) | remaining activity at 25 µM [1] [%] | Dmax at 25 µM [2] [%] | DC50 [3] [nM] | also measured
CCN1C[C@H]2C[C@H]2[C@@H](Oc2ccc3c(c2)CN(C2CCC(=O)NC2=O)C3=O)C1 (single isomer, unassigned) [Example 22, 3-(5-(((1S*,5R*,6R*)-3-ethyl-3-azabicyclo[4.1.0]heptan-5-yl)oxy)-1-oxoisoindolin-2-yl)piperidine-2,6-dione] | 75.7 | 24.4 | 83 | –
CCN1CCC(C)(C)C(Oc2ccc3c(c2)CN(C2CCC(=O)NC2=O)C3=O)C1 (single isomer, unassigned) [Example 48, 3-(5-((1-ethyl-4,4-dimethylpiperidin-3-yl)oxy)-1-oxoisoindolin-2-yl)piperidine-2,6-dione] | – | – | > 25000 | remaining activity at 25 µM (HEK-293T, read-out: WIZ Amax): 102%
CCN1CCC(C)(C)C(Oc2ccc3c(c2)CN(C2CCC(=O)NC2=O)C3=O)C1 (single isomer, unassigned) [Example 49, 3-(5-((1-ethyl-4,4-dimethylpiperidin-3-yl)oxy)-1-oxoisoindolin-2-yl)piperidine-2,6-dione] | 91.4 | 8.63 | 83 | –
CC[C@H](C)N1CCC(C)(C)C(Oc2ccc3c(c2)CN(C2CCC(=O)NC2=O)C3=O)C1 (single isomer, unassigned) [Example 50] | 97.6 | – | > 25000 | % degradation of WIZ (100 − Amax) (at 25 uM, 100 − Amax): 2.38%
CC[C@H](C)N1CCC(C)(C)C(Oc2ccc3c(c2)CN(C2CCC(=O)NC2=O)C3=O)C1 (single isomer, unassigned) [Example 51] | – | – | 200 | WIZ Amax [4]: 87.19%; % degradation of WIZ (100 − Amax) (at 25 uM, 100 − Amax): 12.81%
CCN1C[C@H](OC)C[C@@H](Oc2ccc3c(c2)CN(C2CCC(=O)NC2=O)C3=O)C1 (single isomer, unassigned) [Example 65-1] | 18.1 | 81.9 | 1.4 | –
CCN1C[C@H](OC)C[C@@H](Oc2ccc3c(c2)CN(C2CCC(=O)NC2=O)C3=O)C1 (single isomer, unassigned) [Example 65-2] | – | – | 1.2 | WIZ Amax [4]: 19.67%; % degradation of WIZ (100 − Amax) (at 25 uM, 100 − Amax): 80.33%
CCN1C[C@H](C)C[C@@H](Oc2ccc3c(c2)CN(C2CCC(=O)NC2=O)C3=O)C1 (single isomer, unassigned) [Example 76-1] | 13.8 | 86.2 | 1.6 | –
CCN1C[C@H](C)C[C@@H](Oc2ccc3c(c2)CN(C2CCC(=O)NC2=O)C3=O)C1 (single isomer, unassigned) [Example 76-2] | – | – | 0.6 | WIZ Amax [4]: 12.82%; % degradation of WIZ (100 − Amax) (at 25 uM, 100 − Amax): 87.18%
CCN1CCC[C@H](Oc2ccc3c(c2)CN(C2CCC(=O)NC2=O)C3=O)C1 (stereo partly drawn) [Example 2, 3-(5-(((S)-1-ethylpiperidin-3-yl)oxy)-1-oxoisoindolin-2-yl)piperidine-2,6-dione] | – | – | 360 | Dmax [5]: 11.1%; remaining activity at 25 µM (HEK-293T, read-out: WIZ Amax): 88.9%
CC(C)CN1CCC[C@@H](Oc2ccc3c(c2)CN(C2CCC(=O)NC2=O)C3=O)C1 (stereo partly drawn) [Example 3, 3-(5-(((R)-1-isobutylpiperidin-3-yl)oxy)-1-oxoisoindolin-2-yl)piperidine-2,6-dione] | 26.8 | 73.2 | 2 | –
O=C1CCC(N2Cc3cc(O[C@@H]4CCCN(CC5COC5)C4)ccc3C2=O)C(=O)N1 (stereo partly drawn) [Example 4, 3-(5-(((R)-1-(oxetan-3-ylmethyl)piperidin-3-yl)oxy)-1-oxoisoindolin-2-yl)piperidine-2,6-dione] | 64.4 | 35.6 | 110 | –
O=C1CCC(N2Cc3cc(O[C@@H]4CCCN(CC5CCC(F)(F)CC5)C4)ccc3C2=O)C(=O)N1 (stereo partly drawn) [Example 5, 3-(5-(((R)-1-((4,4-difluorocyclohexyl)methyl)piperidin-3-yl)oxy)-1-oxoisoindolin-2-yl)piperidine-2,6-dione] | 77.3 | 22.7 | 55 | –
O=C1CCC(N2Cc3cc(O[C@@H]4CCCN(CC5CCCCC5)C4)ccc3C2=O)C(=O)N1 (stereo partly drawn) [Example 6, 3-(5-(((R)-1-(cyclohexylmethyl)piperidin-3-yl)oxy)-1-oxoisoindolin-2-yl)piperidine-2,6-dione] | 86.7 | 13.3 | 31 | –
O=C1CCC(N2Cc3cc(O[C@@H]4CCCN(CC5CCC5)C4)ccc3C2=O)C(=O)N1 (stereo partly drawn) [Example 7, 3-(5-(((R)-1-(cyclobutylmethyl)piperidin-3-yl)oxy)-1-oxoisoindolin-2-yl)piperidine-2,6-dione] | 38.9 | 61.1 | 1.1 | –
CCCN1CCC[C@@H](Oc2ccc3c(c2)CN(C2CCC(=O)NC2=O)C3=O)C1 (stereo partly drawn) [Example 8, 3-(1-oxo-5-(((R)-1-propylpiperidin-3-yl)oxy)isoindolin-2-yl)piperidine-2,6-dione] | 33 | 67 | 28 | –
CC(C)N1CCC[C@@H](Oc2ccc3c(c2)CN(C2CCC(=O)NC2=O)C3=O)C1 (stereo partly drawn) [Example 9, 3-(5-(((R)-1-isopropylpiperidin-3-yl)oxy)-1-oxoisoindolin-2-yl)piperidine-2,6-dione] | – | – | 4.2 | Dmax (HEK-293T, read-out: % degradation of WIZ (100 − Amax), 100 − Amax): 71.5%; remaining activity at 25 µM (HEK-293T, read-out: WIZ Amax, DMSO-normalized, curve-fitted percentage of WIZ-HiBit remaining at 25 uM): 28.5%
O=C1CCC(N2Cc3cc(O[C@@H]4CCCN(C5CCOCC5)C4)ccc3C2=O)C(=O)N1 (stereo partly drawn) [Example 10, 3-(1-oxo-5-(((R)-1-(tetrahydro-2H-pyran-4-yl)piperidin-3-yl)oxy)isoindolin-2-yl)piperidine-2,6-dione] | 45.5 | 54.5 | 33 | –
O=C1CCC(N2Cc3cc(O[C@@H]4CCCN(C5CC6(COC6)C5)C4)ccc3C2=O)C(=O)N1 (stereo partly drawn) [Example 11, 3-(5-(((R)-1-(2-oxaspiro[3.3]heptan-6-yl)piperidin-3-yl)oxy)-1-oxoisoindolin-2-yl)piperidine-2,6-dione] | 56.4 | 43.6 | 110 | –
O=C1CCC(N2Cc3cc(O[C@@H]4CCCN(C5COC5)C4)ccc3C2=O)C(=O)N1 (stereo partly drawn) [Example 12, 3-(5-(((R)-1-(oxetan-3-yl)piperidin-3-yl)oxy)-1-oxoisoindolin-2-yl)piperidine-2,6-dione] | 68.5 | 31.5 | 130 | –
CCn1cc(CN2CCC[C@@H](Oc3ccc4c(c3)CN(C3CCC(=O)NC3=O)C4=O)C2)cn1 (stereo partly drawn) [Example 14, 3-(5-(((R)-1-((1-ethyl-1H-pyrazol-4-yl)methyl)piperidin-3-yl)oxy)-1-oxoisoindolin-2-yl)piperidine-2,6-dione] | – | – | – | Dmax [5]: 59.3%; remaining activity at 25 µM (HEK-293T, read-out: WIZ Amax): 40.7%; DC50 (read-out: WIZ AC50; WIZ HiBit assay in 293T cells, about 18 hours, 10-point 5-fold dilution, top 25 μM): 57 nM
CCN1CCC2(CC2)[C@@H](Oc2ccc3c(c2)CN(C2CCC(=O)NC2=O)C3=O)C1 (stereo partly drawn) [Example 15, 3-(5-(((R)-6-ethyl-6-azaspiro[2.5]octan-4-yl)oxy)-1-oxoisoindolin-2-yl)piperidine-2,6-dione] | – | – | 8.4 | Dmax [5]: 80%; remaining activity at 25 µM (HEK-293T, read-out: WIZ Amax): 20%
CC(C)CN1CCC2(CC2)[C@@H](Oc2ccc3c(c2)CN(C2CCC(=O)NC2=O)C3=O)C1 (stereo partly drawn) [Example 16, 3-(5-(((R)-6-isobutyl-6-azaspiro[2.5]octan-4-yl)oxy)-1-oxoisoindolin-2-yl)piperidine-2,6-dione] | 40.9 | 59.1 | 2.5 | –
CC[C@H](C)N1CCC2(CC2)[C@@H](Oc2ccc3c(c2)CN(C2CCC(=O)NC2=O)C3=O)C1 (stereo partly drawn) [Example 17, 3-(5-(((R)-6-((S)-sec-butyl)-6-azaspiro[2.5]octan-4-yl)oxy)-1-oxoisoindolin-2-yl)piperidine-2,6-dione] | 27.8 | 72.2 | 14 | –
